The text below walks through data of patent publication US7629503B2, “Δ-4 desaturases from Euglena gracilis, expressing plants, and oils containing PUFA” (BASF Plant Science GmbH, priority 2003, dated 2009).

Each structure is given as a SMILES string.

This assay deals with Euglena gracilis Δ4-desaturase. The experiment in a line: Substrate specificity: feeding fatty acids to yeast expressing the Δ-4-desaturase (pYES-EGD4-2), fatty acid analysis by GC. In kind it is cell-based. The settings on record: transformed yeast (saccharomyces strain SC334, pYES-EGD4-2), 100 μM fatty acid substrate (67 μM for 16:1 Δ7), 2% galactose induction, 15° C. for 4 days. As for the experimental part:
Yeasts transformed with the plasmid pYES-EGD4-2 as in Example 4 were analyzed in the following way:
The yeast cells were grown in 1 ml of minimal medium with 0.2% raffinose for two days and then transferred into 5 ml of the same medium. This culture was grown at 30° C. for 6 h until the OD600 was 0.05. Then 100 μM of the fatty acid substrates (67 μM for 16:1 Δ7) were added, and the expression of the Δ-4-desaturase was induced by adding 2% galactose. The cells were then incubated at 15° C. for 4 days, harvested, washed with 100 mM NaHCO3 and employed for the fatty acid analysis by GC.
The substrate specificities were found by feeding the transformed yeast strains with different fatty acids (Tab. 1). Conversion of the fed fatty acids to their Δ4-desaturated products was then determined.
Turning to `CCCCC/C=C\C/C=C\C/C=C\C/C=C\CCCCCC(=O)O` [22:4 Δ7, 10, 13, 16], the “Conversion (in %) of the fed fatty acid to its Δ4-desaturated product” value was 28.7 (±2.5) %.

As for `CC/C=C\C/C=C\C/C=C\C/C=C\C/C=C\CCCCCC(=O)O` [22:5 Δ7, 10, 13, 16, 19, docosapentaenoic acid], the “Conversion (in %) of the fed fatty acid to its Δ4-desaturated product” value is given as 29.7 (±2.8) %.

`CCCCC/C=C\C/C=C\C/C=C\CCCCCCC(=O)O` [20:3 Δ8, 11, 14]: the “Conversion (in %) of the fed fatty acid to its Δ4-desaturated product” value is “Not detectable”.

In the case of `CCCCCCCC/C=C\CCCCCCCC(=O)O` [18:1 Δ9], the “Conversion (in %) of the fed fatty acid to its Δ4-desaturated product” value was “Not detectable”.

With `CCCCC/C=C\C/C=C\C/C=C\CCCCC(=O)O` [18:3 Δ6, 9, 12], the “Conversion (in %) of the fed fatty acid to its Δ4-desaturated product” value is “Not detectable”.

As to `CCCCCCCCCCCCCCCC(=O)O` [16:0], the “Conversion (in %) of the fed fatty acid to its Δ4-desaturated product” value is reported as “Not detectable”.

As to `CCCCCCCCC=CCCCCCC(=O)O` [16:1 Δ7], the “Conversion (in %) of the fed fatty acid to its Δ4-desaturated product” value is listed as 7.4 (±0.8) %.

For `CCCCC/C=C\C/C=C\CCCCCCCC(=O)O` [18:2 Δ9, 12], the “Conversion (in %) of the fed fatty acid to its Δ4-desaturated product” value is listed as “Not detectable”.

For the compound `CCCCCCCCCCCCCCCCCC(=O)O` [18:0], the “Conversion (in %) of the fed fatty acid to its Δ4-desaturated product” value is listed as “Not detectable”.

For the compound `CC/C=C\C/C=C\C/C=C\CCCCCC(=O)O` [16:3 Δ7, 10, 13], the “Conversion (in %) of the fed fatty acid to its Δ4-desaturated product” value is given as 21.4 (±3.3) %.

As to `CCCCCC/C=C\CCCCCCCC(=O)O` [16:1 Δ9], the “Conversion (in %) of the fed fatty acid to its Δ4-desaturated product” value was “Not detectable”.
